Laboratory results reported in US20080312287A1, “Compound and Methods For the Treatment of Cancer and Malaria” (University of Washington, priority 2005, published 2008).
Read-outs that look alike come from different tables or passages of the source.

Columns and labels:
PfPFT = molecular target: T1, PfPFT (Plasmodium falciparum, UniProt Q8I503+Q8IHP6); experiment: PfPFT inhibition, scintillation proximity assay with partially purified PfPFT; type: biochemical; conditions: for inhibition at 0.05 µM: read-out: % Inhibition of PfPFT at 50 nM, inhibitor at 50 nM; for inhibition at 0.005 µM: read-out: % Inhibition of PfPFT at 5 nM, inhibitor at 5 nM
T1 sequence (Q8I503 1-521): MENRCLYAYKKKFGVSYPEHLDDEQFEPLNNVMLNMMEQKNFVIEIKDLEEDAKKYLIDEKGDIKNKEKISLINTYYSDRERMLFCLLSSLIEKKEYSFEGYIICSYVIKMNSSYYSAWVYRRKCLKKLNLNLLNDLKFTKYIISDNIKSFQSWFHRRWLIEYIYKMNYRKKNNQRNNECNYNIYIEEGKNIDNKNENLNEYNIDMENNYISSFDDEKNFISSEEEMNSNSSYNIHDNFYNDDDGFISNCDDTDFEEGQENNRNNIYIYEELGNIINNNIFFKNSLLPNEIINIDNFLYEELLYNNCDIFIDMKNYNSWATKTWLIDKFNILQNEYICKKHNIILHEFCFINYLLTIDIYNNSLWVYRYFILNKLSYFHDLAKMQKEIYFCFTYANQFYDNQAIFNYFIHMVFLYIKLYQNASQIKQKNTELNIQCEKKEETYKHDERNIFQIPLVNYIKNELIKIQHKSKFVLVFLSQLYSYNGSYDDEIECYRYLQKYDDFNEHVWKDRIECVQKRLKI
T1 sequence (Q8IHP6 1-923): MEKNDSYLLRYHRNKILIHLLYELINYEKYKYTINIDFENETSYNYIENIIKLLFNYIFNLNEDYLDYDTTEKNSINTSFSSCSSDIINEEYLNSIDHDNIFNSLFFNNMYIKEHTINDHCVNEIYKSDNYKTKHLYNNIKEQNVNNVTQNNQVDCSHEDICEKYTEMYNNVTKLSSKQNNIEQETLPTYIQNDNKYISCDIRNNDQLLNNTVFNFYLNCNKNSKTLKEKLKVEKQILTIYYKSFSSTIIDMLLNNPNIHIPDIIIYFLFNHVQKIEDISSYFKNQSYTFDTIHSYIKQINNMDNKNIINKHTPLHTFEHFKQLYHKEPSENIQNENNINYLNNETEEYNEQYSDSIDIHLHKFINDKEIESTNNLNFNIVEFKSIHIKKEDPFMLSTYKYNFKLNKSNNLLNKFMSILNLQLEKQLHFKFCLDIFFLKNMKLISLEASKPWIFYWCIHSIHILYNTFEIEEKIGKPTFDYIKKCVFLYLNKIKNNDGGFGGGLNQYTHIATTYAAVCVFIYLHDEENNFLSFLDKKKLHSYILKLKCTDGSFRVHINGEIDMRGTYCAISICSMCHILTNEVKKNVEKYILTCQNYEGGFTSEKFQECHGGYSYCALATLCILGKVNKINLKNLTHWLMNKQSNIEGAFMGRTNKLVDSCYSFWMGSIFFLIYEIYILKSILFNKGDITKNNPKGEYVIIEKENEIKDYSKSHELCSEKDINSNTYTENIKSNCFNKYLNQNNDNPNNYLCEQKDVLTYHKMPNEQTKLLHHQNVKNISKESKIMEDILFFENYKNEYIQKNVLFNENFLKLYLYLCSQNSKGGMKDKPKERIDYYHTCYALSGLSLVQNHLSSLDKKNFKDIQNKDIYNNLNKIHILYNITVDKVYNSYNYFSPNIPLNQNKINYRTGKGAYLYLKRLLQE

P. falciparum 3D7 = experiment: P. falciparum ED50 determination, [3H]-hypoxanthine incorporation, strain 3D7; type: cell-based, Plasmodium falciparum
Excerpt: (§1) Plasmodium strains. The P. falciparum strains used in this study were 3D7 (Netherlands, sensitive) provided by Dr. Pradipsinh Rathod from the University of Washington and K1 (Thailand, ChQ-R, Pyr-R) obtained from the MR4Unit of the American Type Culture Collection (ATCC, Manassas, Va.).
(§2) P. falciparum culture. Strains of P. falciparum were sustained in vitro based on experimental techniques as described by Trager and Jensen.^26 Cultures were maintained in RPMI-1640 (Sigma, St. Louis, […].) with 2 mM L-glutamine, 25 mM HEPES, 33 mM NaHCO3, 20 μg/ml gentamicin sulfate and 20% (v/v) heat-inactivated human plasma type A+ (R^P-20P). Type A+ erythrocytes were obtained from lab donors, washed three times with RPMI, re-suspended in 50% RPMI, and stored at 4° C. Parasites were grown in 10 mL of a 2% hematocrit/RP-20P (v/v) in 50-mL flasks under a 5% CO2, 5% O2, and 90% N2 atmosphere.
(§3) P. falciparum ED50 determination. One […]L of PFTI dissolved in DMSO was added to each well of a 96-well plate followed by the addition of 200 μL of P. falciparum culture at parasitemia and hematocrit of 0.5%. Plates were flushed with 5% CO2, 5% O2, and 90% N2 then incubated at 37° C. for 48 hr. [8-^3H]-hypoxanthine (0.3 μCi, 20 Ci/mmol, American Radiolabeled Chemicals) in 30 μL RP-20P was added to cultures and incubated for an additional 24 hours. Cells were harvested onto filter mats by a Multiharvester (Skatron, Sunnyvale, Calif.) and the radioactivity incorporated into the parasites was counted on a β-scintillation counter. The background level detected with uninfected erythrocytes was subtracted from the data. The ^3H-incorporation into infected RBCs with 1 μL DMSO vehicle alone represents 100% malaria growth. ED50 values were determined by linear regression analysis of the plots of ^3H-hypoxanthine incorporation versus concentration of compound.

P. falciparum K1 = experiment: P. falciparum ED50 determination, [3H]-hypoxanthine incorporation, strain K1; type: cell-based, Plasmodium falciparum
Excerpt: as §1, §2, §3

[1] = Plasmodium falciparum, 3D7, strain 3D7, concentration decreasing hypoxanthine incorporation into parasites twofold, read-out: ED50 3D7
[2] = Plasmodium falciparum, K1, strain K1, concentration decreasing hypoxanthine incorporation into parasites twofold, read-out: ED50 K1

| SMILES | inhibition at 0.05 µM (PfPFT) | inhibition at 0.005 µM (PfPFT) | EC50 (P. falciparum 3D7; [1]) | EC50 (P. falciparum K1; [2]) | further results |
| --- | --- | --- | --- | --- | --- |
| Cn1cnc(S(=O)(=O)N(CCN(Cc2cnc[nH]2)c2ccccc2)Cc2ccccc2)c1 [Compound 3c, 1-Methyl-1H-imidazole-4-sulfonic acid benzyl-{2-[(3H-imidazol-4-ylmethyl)-phenyl-amino]-ethyl}-amide] | 32% |  |  |  |  |
| Cc1ccc(CS(=O)(=O)N(CCN(Cc2cnc[nH]2)c2ccccc2)Cc2ccccc2)cc1 [Compound 3d, N-Benzyl-N-{2-[(3H-imidazol-4-ylmethyl)-phenyl-amino]-ethyl}-C-p-tolyl-methanesulfonamide] | 3% |  |  |  |  |
| O=S(=O)(c1ccc2ccccc2c1)N(CCN(Cc1cnc[nH]1)c1ccccc1)Cc1ccccc1 [Compound 3e, Naphthalene-2-sulfonic acid benzyl-{2-[(3H-imidazol-4-ylmethyl)-phenyl-amino]-ethyl}-amide] | 0% |  |  |  |  |
| O=S(=O)(c1cccc2cccnc12)N(CCN(Cc1cnc[nH]1)c1ccccc1)Cc1ccccc1 [Compound 3f, Quinoline-8-sulfonic acid benzyl-{2-[(3H-imidazol-4-ylmethyl)-phenyl-amino]-ethyl}-amide] | 0% |  |  |  |  |
| CN(C)c1cccc2c(S(=O)(=O)N(CCN(Cc3cnc[nH]3)c3ccccc3)Cc3ccccc3)cccc12 [Compound 3g, 5-Dimethylamino-naphthalene-1-sulfonic acid benzyl-{2-[(3H-imidazol-4-ylmethyl)-phenyl-amino]-ethyl}-amide] | 0% |  |  |  |  |
| Cn1cnc(S(=O)(=O)N(CCN(Cc2cnc[nH]2)c2ccc(Br)cc2)Cc2ccccc2)c1 [Compound 8a, 1-Methyl-1H-imidazole-4-sulfonic acid benzyl-{2-[(4-bromo-phenyl)-(3H-imidazol-4-ylmethyl)-amino]-ethyl}-amide] | 80% |  |  |  |  |
| Cn1cnc(S(=O)(=O)N(CCN(Cc2cncn2C)c2ccc(C#N)cc2)Cc2cccnc2)c1 [Compound 8ab, 1-Methyl-1H-imidazole-4-sulfonic acid {2-[(4-cyano-phenyl)-(3-methyl-3H-imidazol-4-ylmethyl)-amino]-ethyl}-pyridin-3-ylmethyl-amide] | 74% | 18% | 2.8 µM | 4.25 µM |  |
| Cn1cnc(S(=O)(=O)N(CCN(Cc2cncn2C)c2ccc(C#N)cc2)Cc2ccncc2)c1 [Compound 8ac, 1-Methyl-1H-imidazole-4-sulfonic acid {2-[(4-cyano-phenyl)-(3-methyl-3H-imidazol-4-ylmethyl)-amino]-ethyl}-pyridin-4-ylmethyl-amide] | 62% | 22% | 3.7 µM | 5 µM |  |
| Cn1cnc(S(=O)(=O)N(CCN(Cc2cncn2C)c2ccc(C#N)cc2)Cc2cccc(C#N)c2)c1 [Compound 8ad, 1-Methyl-1H-imidazole-4-sulfonic acid (3-cyano-benzyl)-{2-[(4-cyano-phenyl)-(3-methyl-3H-imidazol-4-ylmethyl)-amino]-ethyl}-amidem-cyanobenzyl] |  |  |  |  | % Inhibition of PfPFT at 5 nM (PfPFT; inhibitor at 5 nM): 45%; % Inhibition of PfPFT at 50 nM (PfPFT; inhibitor at 50 nM): 89%; EC50 (P. falciparum 3D7; strain 3D7, concentration decreasing hypoxanthine incorporation into parasites twofold, read-out: ED50 3D7): 0.35 µM; EC50 (P. falciparum K1; strain K1, concentration decreasing hypoxanthine incorporation into parasites twofold, read-out: ED50 K1): 1.8 µM |
| Cn1cnc(S(=O)(=O)N(CCN(Cc2cncn2C)c2ccc(C#N)cc2)Cc2cccc(-c3ccccc3)c2)c1 [Compound 8af, 1-Methyl-1H-imidazole-4-sulfonic acid biphenyl-3-ylmethyl-{2-[(4-cyano-phenyl)-(3-methyl-3H-imidazol-4-ylmethyl)-amino]-ethyl}-amide] | 93% | 56% | 2.4 µM | 3.25 µM |  |
| Cn1cnc(S(=O)(=O)N(CCN(Cc2cncn2C)c2ccc(C#N)cc2)Cc2ccc(-n3cccc3)cc2)c1 [Compound 8ai, 1-Methyl-1H-imidazole-4-sulfonic acid {2-[(4-cyano-phenyl)-(3-methyl-3H-imidazol-4-ylmethyl)-amino]-ethyl}-(4-pyrrol-1-yl-benzyl)-amide] | 85% | 39% | 0.257 µM | 0.41 µM | IC50 (PfPFT; concentration decreasing transferase activity twofold): 0.011 µM |
| Cn1cncc1CN(CCN(Cc1ccccc1)S(=O)(=O)c1cccs1)c1ccc(C#N)cc1 [Compound 8f, Thiophene-2-sulfonic acid benzyl-{2-[(4-cyano-phenyl)-(3-methyl-3H-imidazol-4-ylmethyl)-amino]-ethyl}-amide] | 74% | 17% | 0.55 µM | 1.12 µM |  |
| Cn1cncc1CN(CCN(Cc1ccccc1)S(=O)(=O)c1cccc2cccnc12)c1ccc(C#N)cc1 [Compound 8h, Quinoline-8-sulfonic acid benzyl-{2-[(4-cyano-phenyl)-(3-methyl-3H-imidazol-4-ylmethyl)-amino]-ethyl}-amide] | 35% | 14% | 2.1 µM | 2.4 µM |  |
| CC(=O)N(CCN(Cc1cncn1C)c1ccc(C#N)cc1)Cc1ccccc1 [Compound 8j, N-Benzyl-N-{2-[(4-cyano-phenyl)-(3-methyl-3H-imidazol-4-ylmethyl)-amino]-ethyl}-acetamide] | 56% | 0% |  |  | EC50 (P. falciparum 3D7; Plasmodium falciparum, 3D7, read-out: ED50 3D7): 2.5 µM; EC50 (P. falciparum K1; Plasmodium falciparum, K1, read-out: ED50 K1): > 5 µM |
| CC(C)C(=O)N(CCN(Cc1cncn1C)c1ccc(C#N)cc1)Cc1ccccc1 [Compound 8k, N-Benzyl-N-{2-[(4-cyano-phenyl)-(3-methyl-3H-imidazol-4-ylmethyl)-amino]-ethyl}-isobutyramide] | 61% | 0% | 2 µM | > 5 µM |  |
| C=CCN(CCN(Cc1cncn1C)c1ccc(C#N)cc1)S(=O)(=O)c1cn(C)cn1 [Compound 8l, 1-Methyl-1H-imidazole-4-sulfonic acid allyl-{2-[(4-cyano-phenyl)-(3-methyl-3H-imidazol-4-ylmethyl)-amino]-ethyl}-amide] | 42% | 1% | > 5 µM | > 5 µM |  |
